US6689749B1, “Neuropeptides originating in scorpion” (Suntory Limited, priority 1996, dated 2004)

Target: T1, rat brain voltage-gated K+ channel, Kv1.3 (Rattus norvegicus, UniProt P15384)
T1 construct: expressed in transfected cells; host or cells: Xenopus oocytes (cRNA injection; pAS18 vector, SP6 transcription; clone from Prof; O. Pongs)
Assay: Assay of K+ channel inhibition: two-electrode voltage clamp of Kv1.3 expressed in Xenopus oocytes
Type: cell-based
Conditions: IC50 comparison with C-terminally amidated HsTX1
Method: Assay on inhibitory activity of the peptides on K^+ channels was performed in the following manner. The gene of the rat brain voltage-gated K^+ channel, Kv1.3 (Stuhmer et al., EMBO J., 8, vol. 11, pp. 3235-3244, 1988), which was graciously contributed by Prof. O. Pongs (Institute für Neurale Signalverarbeitung, Hamburg, Germany) was inserted into pAS18 vector according to a conventional technique. This vector was treated with EcoRI and then the resultant clone was transcribed in vitro with SP6 RNA polymerase using a transcription kit (Stratagene Inc., USA). The cRNA obtained was injected into Xenopus oocytes 16-72 hr prior to electrophysiological experiments.
The oocytes which had been expressed the Kv1.3 gene were added to a 100 μl-chamber filled with an ND96 solution (0.3 mM CaCl2, 1 mM MgCl2, 2 mM KCl and 96 mM NaCl in 5 mM Hepes buffer, pH 7.6) supplemented with 50 mg/ml of bovine serum albumin (BSA), and the ND96 solution was continuously perfused through reservoirs at a flow rate of 4 ml/min. The sample to be tested was separately dissolved to an ND96 solution and then added to the chamber by perfusion through a reservoir. The switching from one reservoir to another for each experiment was performed by means of Teflon valves. All measurements were made at room temperature (about 22° C.). […]

T1 sequence (P15384 whole entry): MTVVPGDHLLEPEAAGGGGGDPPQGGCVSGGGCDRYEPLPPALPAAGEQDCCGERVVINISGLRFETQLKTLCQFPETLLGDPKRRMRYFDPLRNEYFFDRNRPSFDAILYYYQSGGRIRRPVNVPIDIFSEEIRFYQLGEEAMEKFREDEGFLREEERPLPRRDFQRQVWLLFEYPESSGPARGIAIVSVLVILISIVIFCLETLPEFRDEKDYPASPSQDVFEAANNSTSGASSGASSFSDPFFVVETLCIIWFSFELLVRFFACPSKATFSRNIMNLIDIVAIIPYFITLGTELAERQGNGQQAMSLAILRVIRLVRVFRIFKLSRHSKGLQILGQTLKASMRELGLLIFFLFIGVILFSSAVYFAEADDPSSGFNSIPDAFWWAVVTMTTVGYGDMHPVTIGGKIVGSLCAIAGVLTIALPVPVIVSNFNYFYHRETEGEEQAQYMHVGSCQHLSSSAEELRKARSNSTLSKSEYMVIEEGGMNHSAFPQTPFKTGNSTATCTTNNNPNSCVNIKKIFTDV

CSCC[C@@H]1NC(=O)[C@@H]2CSSC[C@H](NC(=O)[C@H](CO)NC(=O)[C@H](C)N)C(=O)N[C@@H](CCCNC(=N)N)C(=O)N[C@@H]([C@@H](C)O)C(=O)N3CCC[C@H]3C(=O)N[C@@H](CCCCN)C(=O)N[C@@H](CC(=O)O)C(=O)N[C@H]3CSSC[C@H](NC(=O)[C@H](CCCCN)NC(=O)[C@H](CCCNC(=N)N)NC(=O)[C@H](CC(N)=O)NC1=O)C(=O)N[C@@H](CCCCN)C(=O)N[C@H]1CSSC[C@H](NC(=O)[C@@H]4CCCN4C(=O)[C@H](CC(=O)O)NC(=O)[C@H](C)NC3=O)C(=O)N[C@@H](CCCNC(=N)N)C(=O)N[C@@H](CCCCN)C(=O)N[C@@H](CCC(=O)O)C(=O)N[C@@H]([C@@H](C)O)C(=O)NCC(=O)N[C@@H](CSSC[C@@H](C(=O)O)NC(=O)[C@H](CCCNC(=N)N)NC(=O)[C@H](CC(N)=O)NC1=O)C(=O)N1CCC[C@H]1C(=O)N[C@@H](Cc1ccc(O)cc1)C(=O)NCC(=O)N[C@@H](CCCCN)C(=O)N2 [HsTX1-COOH]
activity relative to HsTX1 on Kv1.3: about one-fifth
